Measurements reported in the NIST ThermoML archive (doi:10.1016/j.jct.2005.03.012).

Assay: molar heat capacity at constant pressure; xn = mol fraction of the nth substance listed
Conditions: Liquid, Flow calorimetry

CO [methanol] + O
Conditions	molar heat capacity at constant pressure [J/K/mol]
329.01 K, 5000 kPa, x1 = 0.9	88.91
330.62 K, 10000 kPa, x1 = 0.8	89.87
330.92 K, 5000 kPa, x1 = 0.8	90.19
330.98 K, 2000 kPa, x1 = 0.8	89.81
331.74 K, 5000 kPa, x1 = 0.1	82.22
332.15 K, 5000 kPa, x1 = 0.7	90.68
333.12 K, 10000 kPa, x1 = 0.6	90
333.19 K, 5000 kPa, x1 = 0.6	90.87
333.43 K, 5000 kPa, x1 = 0.2	86.68
333.48 K, 10000 kPa, x1 = 0.2	86.18
333.52 K, 2000 kPa, x1 = 0.6	90.9
333.71 K, 2000 kPa, x1 = 0.2	86.86
333.89 K, 5000 kPa, x1 = 0.5	90.43
333.95 K, 5000 kPa, x1 = 0.4	89.97
334 K, 5000 kPa, x1 = 0.3	88.54
334.08 K, 10000 kPa, x1 = 0.4	89.57
334.13 K, 2000 kPa, x1 = 0.4	90.16
352.61 K, 5000 kPa, x1 = 0.9	95.17
354.08 K, 5000 kPa, x1 = 0.8	95.72
354.53 K, 5000 kPa, x1 = 0.1	82.78
355.25 K, 5000 kPa, x1 = 0.7	96.11
355.71 K, 5000 kPa, x1 = 0.6	95.6
355.86 K, 5000 kPa, x1 = 0.5	94.46
355.92 K, 5000 kPa, x1 = 0.2	87.32
356.11 K, 5000 kPa, x1 = 0.4	92.66
356.17 K, 5000 kPa, x1 = 0.3	90.87
376.69 K, 5000 kPa, x1 = 0.9	102.61
377.42 K, 5000 kPa, x1 = 0.8	102.59
377.92 K, 5000 kPa, x1 = 0.1	83.23
377.99 K, 5000 kPa, x1 = 0.7	101.84
378.34 K, 5000 kPa, x1 = 0.6	100.47
378.47 K, 5000 kPa, x1 = 0.5	98.56
378.64 K, 5000 kPa, x1 = 0.4	96.44
378.77 K, 5000 kPa, x1 = 0.3	92.83
378.78 K, 5000 kPa, x1 = 0.2	88.72
424.2 K, 5000 kPa, x1 = 0.5	107.27
424.22 K, 5000 kPa, x1 = 0.4	102.77
424.24 K, 5000 kPa, x1 = 0.7	114.48
424.36 K, 10000 kPa, x1 = 0.4	101.14
424.4 K, 2000 kPa, x1 = 0.4	102.94
424.42 K, 2000 kPa, x1 = 0.6	111.49
424.47 K, 5000 kPa, x1 = 0.6	111.25
424.53 K, 10000 kPa, x1 = 0.6	108.79
424.54 K, 5000 kPa, x1 = 0.8	118.06
424.59 K, 2000 kPa, x1 = 0.8	118.73
424.59 K, 10000 kPa, x1 = 0.8	118.7
424.7 K, 10000 kPa, x1 = 0.2	91.26
424.77 K, 2000 kPa, x1 = 0.2	92.01
424.89 K, 5000 kPa, x1 = 0.9	121.27
424.97 K, 5000 kPa, x1 = 0.3	97.58
425.05 K, 5000 kPa, x1 = 0.2	91.9
425.68 K, 5000 kPa, x1 = 0.1	85.15
437.16 K, 8500 kPa, x1 = 0.6	124.31
471.84 K, 10000 kPa, x1 = 0.6	122.64
471.87 K, 10000 kPa, x1 = 0.4	110.24
472.32 K, 5000 kPa, x1 = 0.4	111.75
472.41 K, 8500 kPa, x1 = 0.4	110.52
472.56 K, 5000 kPa, x1 = 0.5	119.44
472.78 K, 8500 kPa, x1 = 0.2	96.55
472.91 K, 5000 kPa, x1 = 0.3	104.69
472.98 K, 5000 kPa, x1 = 0.6	127.9
473.11 K, 5000 kPa, x1 = 0.7	135.08
473.16 K, 5000 kPa, x1 = 0.8	143
473.21 K, 10000 kPa, x1 = 0.8	135.8
473.53 K, 10000 kPa, x1 = 0.2	96.73
473.95 K, 5000 kPa, x1 = 0.9	153.78
474.26 K, 5000 kPa, x1 = 0.2	96.84
474.27 K, 5000 kPa, x1 = 0.1	89.79
474.92 K, 8500 kPa, x1 = 0.8	138.52
497 K, 10000 kPa, x1 = 0.2	100.23
497 K, 10000 kPa, x1 = 0.4	117.78
497.3 K, 8500 kPa, x1 = 0.3	109.45
497.56 K, 8500 kPa, x1 = 0.4	118.93
497.97 K, 8500 kPa, x1 = 0.2	101.63
498.08 K, 8500 kPa, x1 = 0.5	128.47
498.33 K, 8500 kPa, x1 = 0.6	139.08
498.46 K, 10000 kPa, x1 = 0.6	136.33
499.19 K, 8500 kPa, x1 = 0.1	92.18
499.79 K, 8500 kPa, x1 = 0.8	166.33
499.83 K, 10000 kPa, x1 = 0.8	159.51
499.85 K, 8500 kPa, x1 = 0.7	152.5
500.37 K, 8500 kPa, x1 = 0.9	185.8
507.38 K, 10000 kPa, x1 = 0.2	104.52
507.6 K, 10000 kPa, x1 = 0.4	122.36
508.54 K, 10000 kPa, x1 = 0.6	145.98
508.68 K, 8500 kPa, x1 = 0.1	95.38
508.96 K, 8500 kPa, x1 = 0.2	103.83
509.5 K, 10000 kPa, x1 = 0.8	178.64
509.58 K, 8500 kPa, x1 = 0.4	124.67
510.29 K, 8500 kPa, x1 = 0.5	137.86
510.32 K, 8500 kPa, x1 = 0.3	114.54
511.09 K, 8500 kPa, x1 = 0.8	204.86
511.15 K, 8500 kPa, x1 = 0.7	175.97
511.4 K, 8500 kPa, x1 = 0.6	155.15
511.68 K, 8500 kPa, x1 = 0.9	268
513.62 K, 10000 kPa, x1 = 0.5	138.48
514.03 K, 10000 kPa, x1 = 0.4	126.54
514.03 K, 10000 kPa, x1 = 0.6	154.89
514.08 K, 10000 kPa, x1 = 0.3	115.36
514.53 K, 10000 kPa, x1 = 0.1	95.01
514.91 K, 10000 kPa, x1 = 0.2	105.19
514.98 K, 10000 kPa, x1 = 0.9	229.95
515.2 K, 10000 kPa, x1 = 0.8	198.37
515.25 K, 10000 kPa, x1 = 0.7	174.88
515.73 K, 8500 kPa, x1 = 0.1	95.69
516.4 K, 8500 kPa, x1 = 0.9	508.52
517.62 K, 8500 kPa, x1 = 0.2	106.77
517.97 K, 8500 kPa, x1 = 0.3	119.14
518.82 K, 8500 kPa, x1 = 0.8	303.27
519.33 K, 8500 kPa, x1 = 0.4	133.94
519.69 K, 8500 kPa, x1 = 0.7	212.23
520.61 K, 8500 kPa, x1 = 0.5	150.12
522.42 K, 8500 kPa, x1 = 0.6	186.76
